Our source for the logP, Efficacy and chromatographic logP values is US9725414B2, “Fungicidal N-bicycloalkyl and N-tricycloalkyl pyrazole-4-(thio)carboxamide derivatives” (priority 2011, dated 2017).

Data set [1] in a line: log P by HPLC on reversed-phase column (C 18), EEC Directive 79831 Annex V.A8. In kind it is physicochemical. The note with it: for logP: HPLC reversed-phase C 18, 40° C., 0.1% aqueous formic acid and acetonitrile gradient, several values = mixture of two or more isomers. An outline of the steps:
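Reversed-phase C18 HPLC at 40° C, 0.1% aqueous formic acid/acetonitrile linear gradient 10% to 90% acetonitrile, per EEC Directive 79831 Annex V.A8. log P obtained from retention time by linear interpolation between unbranched alkan-2-ones (C3-C16) of known log P.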

The test system of data set [2] is Pyrenophora teres. Description: Example E: in vivo preventive test on Pyrenophora teres (barley), DMF/emulsifier preparation. The note with it: 500 ppm of active ingredient, evaluated 7-9 days after inoculation. The gist of the method:
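Young barley plants sprayed preventively with compound formulated in DMF/alkylaryl polyglycol ether emulsifier and diluted in water. One day later inoculated with aqueous Pyrenophora teres spore suspension, then held 48 h at 22 °C and 100% relative humidity.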

Data set [3] has as its system Sphaerotheca fuliginea. Briefly: Example A: in vivo preventive test on Sphaerotheca fuliginea (cucumber). The note with it: 500 ppm of active ingredient, evaluated 7 days after inoculation. The method, then:
In Vivo Preventive Test on Sphaerotheca fuliginea (Cucumber) Solvent: 49 parts by weight of N,N-dimethylformamide Emulsifier: 1 part by weight of alkylarylpolyglycolether To produce a suitable preparation of active compound, 1 part by weight of active compound is mixed with the stated amounts of solvent and emulsifier, and the concentrate is diluted with water to the desired concentration. To test for preventive activity, young plants are sprayed with the preparation of active compound at the stated rate of application. One day after this treatment, the plants are inoculated with an aqueous spore suspension of Sphaerotheca fuliginea. Then the plants are placed in a greenhouse at approximately 23° C. and a relative atmospheric humidity of approximately 70%.

The subject of data set [4] is Alternaria solani. Description: Example C: in vivo preventive test on Alternaria solani (tomato). The note with it: 500 ppm of active ingredient, evaluated 7 days after inoculation. An outline of the steps: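 Young tomato plants sprayed preventively with compound formulated in DMF/emulsifier and diluted with water, then inoculated one day later with Alternaria solani spores. Plants were held one day at about 22° C, 100% humidity, then at about 20° C, 96% humidity.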

Data set [5] concerns Botrytis cinerea. Briefly: Example O: in vivo protective test on Botrytis cinerea (beans). Conditions: 100 ppm of active ingredient, lesion size 2 days after inoculation. The method, then: In Vivo Protective Test on Botrytis cinerea (Beans)
Solvent: 24.5 parts by weight of acetone • 24.5 parts by weight of N,N-dimethylacetamide
Emulsifier: 1 part by weight of alkylaryl polyglycol ether
To produce a suitable preparation of active compound, 1 part by weight of active compound is mixed with the stated amounts of solvent and emulsifier, and the concentrate is diluted with water to the desired concentration.
To test for preventive activity, young plants are sprayed with the preparation of active compound. After the spray coating has dried on, 2 small pieces of agar covered with growth of Botrytis cinerea are placed on each leaf. The inoculated plants are placed in a darkened chamber at 20° C. and a relative atmospheric humidity of 100%.
2 days after the inoculation, the size of the lesions on the leaves is evaluated. 0% means an efficacy which corresponds to that of the untreated control, while an efficacy of 100% means that no disease is observed.

In data set [6] the test system is Blumeria graminis f.sp. hordei. Briefly: Example J: in vivo preventive test on Blumeria graminis (barley). Conditions: 500 ppm of active ingredient, evaluated 7 days after inoculation. The protocol:
(§1) In Vivo Preventive Test on Blumeria graminis (Barley) Solvent: 49 parts by weight of N,N-dimethylacetamide Emulsifier: 1 part by weight of alkylaryl polyglycol ether To produce a suitable preparation of active compound, 1 part by weight of active compound or active compound combination is mixed with the stated amounts of solvent and emulsifier, and the concentrate is diluted with water to the desired concentration. To test for preventive activity, young plants are sprayed with the preparation of active compound or active compound combination at the stated rate of application. After the spray coating has been dried, the plants are dusted with spores of Blumeria graminis f.sp. hordei.

Data set [7] deals with Venturia inaequalis. Description: Example G: in vivo preventive test on Venturia inaequalis (apple scab). Conditions: 100 ppm of active ingredient, evaluated 10 days after inoculation. The method, then:
In Vivo Preventive Test on Venturia inaequalis (Apple Scab) Solvent: 24.5 parts by weight of acetone • 24.5 parts by weight of N,N-dimethylacetamide Emulsifier: 1 part by weight of alkylaryl polyglycol ether To produce a suitable preparation of active compound, 1 part by weight of active compound is mixed with the stated amounts of solvent and emulsifier, and the concentrate is diluted with water to the desired concentration. To test for preventive activity, young plants are sprayed with the preparation of active compound at the stated rate of application. After the spray coating has dried on, the plants are inoculated with an aqueous conidia suspension of the causal agent of apple scab (Venturia inaequalis) and then remain for 1 day in an incubation cabinet at approximately 20° C. and a relative atmospheric humidity of 100%. The plants are then placed in a greenhouse at approximately 21° C. and a relative atmospheric humidity of approximately 90%.

The subject of data set [8] is Fusarium nivale (var. majus). Description: Example N: in vivo preventive test on Fusarium nivale (wheat). The note with it: 500 ppm of active ingredient, evaluated 5 days after inoculation. The method, then: as §1, with “Fusarium nivale (Wheat)” for “Blumeria graminis (Barley)”, “slightly injured by using a sandblast and afterwards they are sprayed” for “dusted”, “a conidia suspension” for “spores”, “Fusarium nivale (var. majus). The plants are placed in the greenhouse under a translucent incubation cabinet at a temperature of approximately 10° C. and a relative atmospheric humidity of approximately 100%.” for “Blumeria graminis f.sp. hordei.”

Data set [9] concerns Leptosphaeria nodorum. Briefly: Example K: in vivo preventive test on Leptosphaeria nodorum (wheat). The note with it: 500 ppm of active ingredient, evaluated 8 days after inoculation. The protocol:
as §1, with “Leptosphaeria nodorum (Wheat)” for “Blumeria graminis (Barley)”, “sprayed” for “dusted”, “a spore suspension” for “spores”, “Leptosphaeria nodorum. The plants remain for 48 hours in an incubation cabinet at approximately 20° C. and a relative atmospheric humidity of approximately 100%.” for “Blumeria graminis f.sp. hordei.”

The subject of data set [10] is Septoria tritici. Description: Example H: in vivo preventive test on Septoria tritici (wheat), N,N-dimethylacetamide/emulsifier preparation. The note with it: 500 ppm of active ingredient, evaluated 21 days after inoculation. The method, then:
as §1, with “Septoria tritici (Wheat)” for “Blumeria graminis (Barley)”, “sprayed” for “dusted”, “a spore suspension” for “spores”, “Septoria tritici. The plants remain for 48 hours in an incubation cabinet at approximately 20° C. and a relative atmospheric humidity of approximately 100% and afterwards for 60 hours at approximately 15° C. in a translucent incubation cabinet at a relative atmospheric humidity of approximately 100%.” for “Blumeria graminis f.sp. hordei.”

Data set [11] concerns Septoria tritici. Briefly: Example I: in vivo preventive test on Septoria tritici (wheat), acetone/tween/DMSO preparation. The note with it: 500 ppm of active ingredient, grading 24 days after contamination. An outline of the steps:
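Scipion wheat grown at 22° C, sprayed at 1-leaf stage (10 cm); controls received acetone/tween/DMSO/water without active. Inoculated 24 h later with S. tritici spores (500 000/mL), held 72 h at 18° C, 100% RH, then 21 days at 90% RH. % efficacy vs controls scored 24 days post-inoculation.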

Data set [12] has as its system Uromyces appendiculatus. Description: Example Q: in vivo preventive test on Uromyces appendiculatus (bean rust). The note with it: Uromyces appendiculatus on bean plants, 500 ppm of active ingredient, grading 11 days after contamination. An outline of the steps: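 Saxa bean plants at 2-leaf stage, grown at 24° C., sprayed preventively with compound; 24 h later inoculated with U. appendiculatus spores (150 000 spores per mL). Percent efficacy graded 11 days after inoculation versus solvent-treated controls.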

The test system of data set [13] is Pyrenophora teres. Description: Example F: in vivo preventive test on Pyrenophora teres (barley), acetone/tween/DMSO preparation. Conditions: 500 ppm of active ingredient, barley, grading 14 days after contamination. An outline of the steps: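 Barley ("Plaisant") grown at 22° C was sprayed at the 1-leaf stage (10 cm) with active ingredient in acetone/tween/DMSO/water, with solvent-only controls. After 24 h, leaves were inoculated with Pyrenophora teres spores (12 000 spores per mL) from 12-day cultures. % efficacy versus controls graded 14 days post-contamination.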

The test system of data set [14] is Puccinia recondita. Description: Example M: in vivo preventive test on Puccinia recondita (brown rust on wheat). The note with it: 500 ppm of active ingredient, grading 12 days after contamination. An outline of the steps: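 Wheat (Scipion) sprayed with compound at 1-leaf stage, grown at 22° C. Inoculated 24 h later with a spore suspension at 100 000 spores per mL. Efficacy (%) graded 12 days after inoculation against solvent-treated controls.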

Data set [15] deals with Sphaerotheca fuliginea. Briefly: Example B: in vivo preventive test on Sphaerotheca fuliginea (powdery mildew on cucurbits), gherkin plants. The note with it: 500 ppm of active ingredient, grading 12 days after contamination. An outline of the steps: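 Gherkin plants grown at 24 °C were sprayed with compound at the Z11 cotyledon stage; controls received acetone/tween/DMSO/water without active. 24 h later, cotyledons were inoculated by spraying with Sphaerotheca fuliginea spores (100 000 spores per mL).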

Structures are written as SMILES.

A word on the logP: it is a log measure of how a compound divides between an organic and an aqueous phase. The term chromatographic logP denotes a lipophilicity value derived from retention on a column. Low values mean lower lipophilicity, high ones higher lipophilicity.

Take `CC1C(CNC(=S)c2c(C(F)F)nn(C)c2F)CC2CC1C2(C)C` (stereo not shown) [Example 82]: in [1], the logP was determined as 4.82. Besides, the results for the Efficacy in data set [2], in [3] and in [4] were 95%, 93% and 90%, respectively.
`CC(C1CC2CCC1C2)N(C(=O)c1cn(C)nc1C(F)F)C1CC1` (stereo not shown) [Example 94]: the Efficacy in data set [5] amounted to 100%; in data set [6], 89%; in data set [2], 100%; in data set [3] it was 100%; in data set [7], 100%; in data set [8], 100%. Moreover, the values for the Efficacy in data set [9], in data set [4] and in data set [10] were 80%, 100% and 100%, respectively. Besides, in [1], the logP turned out to be 3.52.
With `CC(C1CC2CCC1C2)N(C(=S)c1c(C(F)F)nn(C)c1F)C1CC1` (stereo not shown) [Example 97], the Efficacy in data set [5] came out at 100%; in data set [2], 100%; in data set [3], 100%; in data set [7], 98%; in [4], 95%. Also, in data set [1], the logP came out at 4.47.
As for `Cc1nn(C)c(F)c1C(=O)N(C1CC1)C(C)C12CC3CC(CC(C3)C1)C2` (stereo not shown) [Example 103, N-[1-(adamantan-1-yl)ethyl]-N-cyclopropyl-5-fluoro-1,3-dimethyl-1H-pyrazole-4-carboxamide], the Efficacy was 99% in data set [5]; 100% in data set [2]; 96% in [3]; 100% in [7]; 100% in [4]; 100% in data set [10]. Also, the chromatographic logP in data set [1] was found to be 4.3.
Take `Cn1nc(C(F)F)c(C(=O)NC2CCCC3CCCCC32)c1F` (stereo not shown) [Example 25]: the Efficacy in [11] amounted to 96%; in data set [12], 80%; in data set [13] it was 86%; in data set [2], 95%; in [3], 88%; in data set [14], 100%. For the same compound, the Efficacy in [15] and in [4] was 100% throughout. The logP in [1] was 3.60.
On to `CC(N(C(=O)c1cn(C)nc1C(F)F)C1CC1)C12CC3CC(CC(C3)C1)C2` (stereo not shown) [Example 105], for which the Efficacy in [5] is recorded as 100%; in data set [2], 100%; in data set [3] it was 100%; in data set [7] it was 100%; in data set [4], 95%; in data set [10], 80%. Moreover, in data set [1], the logP is reported as 4.30.
As for `Cc1nn(C)c(F)c1C(=O)N(C1CC1)C(C)C1CC2CCC1C2` (stereo not shown) [Example 96], the logP in data set [1] came to 3.46. The Efficacy in [2] stood at 100%; in [3] it was 95%; in data set [4], 100%.
With `CCc1nn(C)c(F)c1C(=O)N(C1CC1)C(C)C12CC3CC(CC(C3)C1)C2` (stereo not shown) [Example 104], the logP in data set [1] is 4.86. Also, the Efficacy in data set [6] was 78%; in data set [2], 95%; in data set [3], 96%; in data set [9], 83%; in data set [4] it was 95%; in data set [10], 90%.
For the compound `CC1C(CN(C(=O)c2c(C(F)F)nn(C)c2F)C2CC2)CC2CC1C2(C)C` (stereo not shown) [Example 77], the lipophilicity (logP) in [1] came to 4.69. Moreover, the values for the Efficacy in data set [2], in data set [3] and in [4] were 100%, 100% and 95%, respectively.
